Reference: ChEMBL document CHEMBL3596165, “Synthesis, structure elucidation and identification of antiproliferative activities of a novel class of thiophene bioisosteres bearing the privileged 7,8-dihydroimidazo[2,1-c][1,2,4]triazin-4(6H)-one scaffold” (Bioorg Med Chem, 2015)
Calls of active or inactive are those of the source. The calls are words filed in the database; no cut-off is given here.

What was measured:
Vero [1] = experiment: Antiproliferative activity against African green monkey Vero cells after 72 hrs by BrdUrd incorporation assay; type: cell-based; conditions: Chlorocebus sabaeus
T47D [2] = experiment: Antiproliferative activity against human T47D cells at 50 ug/ml after 72 hrs by BrdUrd incorporation assay; type: functional; conditions: read-out: GI
Vero [3] = experiment: Antiproliferative activity against African green monkey Vero cells after 24 hrs by BrdUrd incorporation assay; type: cell-based; conditions: chlorocebus sabaeus
HeLa [4] = experiment: Antiproliferative activity against human HeLa cells after 72 hrs by BrdUrd incorporation assay; type: functional, cell-based
TOV112D [5] = experiment: Antiproliferative activity against human TOV112D cells after 24 hrs by BrdUrd incorporation assay; type: functional, cell-based
[6] = Antiproliferative activity against African green monkey Vero cells at 50 ug/ml after 72 hrs by BrdUrd incorporation assay; type: cell-based; conditions: chlorocebus sabaeus, read-out: GI
TOV112D [7] = experiment: Antiproliferative activity against human TOV112D cells at 50 ug/ml after 48 hrs by BrdUrd incorporation assay; type: functional; conditions: read-out: GI
A549 [8] = experiment: Antiproliferative activity against human A549 cells after 72 hrs by BrdUrd incorporation assay; type: functional, cell-based; conditions: A549, 72 h
[9] = Antiproliferative activity against African green monkey Vero cells at 50 ug/ml after 48 hrs by BrdUrd incorporation assay; type: cell-based; conditions: chlorocebus sabaeus, read-out: GI
TOV112D [10] = experiment: Antiproliferative activity against human TOV112D cells at 50 ug/ml after 24 hrs by BrdUrd incorporation assay; type: functional; conditions: read-out: GI
TOV112D [11] = experiment: Antiproliferative activity against human TOV112D cells at 50 ug/ml after 72 hrs by BrdUrd incorporation assay; type: functional; conditions: read-out: GI
T47D [12] = experiment: Antiproliferative activity against human T47D cells after 24 hrs by BrdUrd incorporation assay; type: functional, cell-based
HeLa [13] = experiment: Antiproliferative activity against human HeLa cells at 50 ug/ml after 24 hrs by BrdUrd incorporation assay; type: functional; conditions: read-out: GI
TOV112D [14] = experiment: Antiproliferative activity against human TOV112D cells after 48 hrs by BrdUrd incorporation assay; type: functional, cell-based
Vero [15] = experiment: Antiproliferative activity against African green monkey Vero cells at 50 ug/ml after 24 hrs by BrdUrd incorporation assay; type: cell-based; conditions: chlorocebus sabaeus
T47D [16] = experiment: Antiproliferative activity against human T47D cells after 48 hrs by BrdUrd incorporation assay; type: functional, cell-based
T47D [17] = experiment: Antiproliferative activity against human T47D cells at 50 ug/ml after 48 hrs by BrdUrd incorporation assay; type: functional; conditions: read-out: GI
HeLa [18] = experiment: Antiproliferative activity against human HeLa cells after 48 hrs by BrdUrd incorporation assay; type: functional, cell-based
A549 [19] = experiment: Antiproliferative activity against human A549 cells at 50 ug/ml after 72 hrs by BrdUrd incorporation assay; type: functional; conditions: A549, 72 h, read-out: GI
A549 [20] = experiment: Antiproliferative activity against human A549 cells at 50 ug/ml after 24 hrs by BrdUrd incorporation assay; type: functional; conditions: A549, 24 h, read-out: GI
Vero [21] = experiment: Antiproliferative activity against African green monkey Vero cells after 48 hrs by BrdUrd incorporation assay; type: cell-based; conditions: Chlorocebus sabaeus
HeLa [22] = experiment: Antiproliferative activity against human HeLa cells after 24 hrs by BrdUrd incorporation assay; type: functional, cell-based
T47D [23] = experiment: Antiproliferative activity against human T47D cells after 72 hrs by BrdUrd incorporation assay; type: functional, cell-based
A549 [24] = experiment: Antiproliferative activity against human A549 cells after 24 hrs by BrdUrd incorporation assay; type: functional, cell-based; conditions: A549, 24 h
TOV112D [25] = experiment: Antiproliferative activity against human TOV112D cells after 72 hrs by BrdUrd incorporation assay; type: functional, cell-based
T47D [26] = experiment: Antiproliferative activity against human T47D cells at 50 ug/ml after 24 hrs by BrdUrd incorporation assay; type: functional; conditions: read-out: GI
A549 [27] = experiment: Antiproliferative activity against human A549 cells at 50 ug/ml after 48 hrs by BrdUrd incorporation assay; type: functional; conditions: A549, 48 h, read-out: GI
HeLa [28] = experiment: Antiproliferative activity against human HeLa cells at 50 ug/ml after 72 hrs by BrdUrd incorporation assay; type: functional; conditions: read-out: GI
A549 [29] = experiment: Antiproliferative activity against human A549 cells after 48 hrs by BrdUrd incorporation assay; type: functional, cell-based; conditions: A549, 48 h
HeLa [30] = experiment: Antiproliferative activity against human HeLa cells at 50 ug/ml after 48 hrs by BrdUrd incorporation assay; type: functional; conditions: read-out: GI
HeLa [31] = experiment: Induction of necrosis in human HeLa cells at 10 ug/ml after 72 hrs by fluorescence microscopic analysis; type: functional
Vero [32] = experiment: Induction of apoptosis in African green monkey Vero cells at 10 ug/ml after 72 hrs by fluorescence microscopic analysis; type: functional, cell-based; conditions: Chlorocebus sabaeus
HeLa [33] = experiment: Induction of apoptosis in human HeLa cells at 10 ug/ml after 72 hrs by fluorescence microscopic analysis; type: functional
T47D [34] = experiment: Induction of apoptosis in human T47D cells at 10 ug/ml after 72 hrs by fluorescence microscopic analysis; type: functional, cell-based
Vero [35] = experiment: Induction of necrosis in African green monkey Vero cells at 10 ug/ml after 72 hrs by fluorescence microscopic analysis; type: functional, cell-based; conditions: Chlorocebus sabaeus
T47D [36] = experiment: Induction of necrosis in human T47D cells at 10 ug/ml after 72 hrs by fluorescence microscopic analysis; type: functional, cell-based

| Structure (SMILES) | IC50 (Vero [1]) | inhibition of growth at 50 µg/mL (T47D [2]) | IC50 (Vero [3]) | IC50 (HeLa [4]) | IC50 (TOV112D [5]) | inhibition at 72 h, 50 ug/ml [6] | inhibition of growth at 50 µg/mL (TOV112D [7]) | IC50 (A549 [8]) | inhibition at 48 h, 50 ug/ml [9] | inhibition of growth at 50 µg/mL (TOV112D [10]) | inhibition of growth at 50 µg/mL (TOV112D [11]) | IC50 (T47D [12]) | inhibition of growth at 50 µg/mL (HeLa [13]) | IC50 (TOV112D [14]) | growth inhibition (GI) (Vero [15]) | IC50 (T47D [16]) | inhibition of growth at 50 µg/mL (T47D [17]) | IC50 (HeLa [18]) | inhibition of growth at 50 µg/mL (A549 [19]) | inhibition of growth at 50 µg/mL (A549 [20]) | other results |
| --- | --- | --- | --- | --- | --- | --- | --- | --- | --- | --- | --- | --- | --- | --- | --- | --- | --- | --- | --- | --- | --- |
| O=c1c(-c2cccs2)nnc2n1CCN2c1ccccc1 | 90 µM | 100% | 170 µM | 80 µM | 90 µM | 90% | 100% | 80 µM | 75% | 90% | 100% | 90 µM | 70% | 80 µM | 50% | 90 µM | 100% | 90 µM | 100% | 80% | IC50 (Vero [21]): 110 µM; IC50 (HeLa [22]): 120 µM; IC50 (T47D [23]): 80 µM; IC50 (A549 [24]): 110 µM; IC50 (TOV112D [25]): 80 µM; inhibition of growth at 50 µg/mL (T47D [26]): 95%; inhibition of growth at 50 µg/mL (A549 [27]): 90%; inhibition of growth at 50 µg/mL (HeLa [28]): 100%; IC50 (A549 [29]): 90 µM; inhibition of growth at 50 µg/mL (HeLa [30]): 100% |
| O=c1c(-c2cccs2)nnc2n1CCN2c1ccc(Cl)c(Cl)c1 | 80 µM | 100% | > 140 µM | 70 µM | 80 µM | 90% | 100% | 70 µM | 50% | 90% | 100% | 80 µM | 50% | 70 µM | 25% | 70 µM | 100% | 80 µM | 100% | 90% | Activity (HeLa [31]): 95%; Activity (Vero [32]): Active; Activity (HeLa [33]): 5%; Activity (T47D [34]): Active; Activity (Vero [35]): Active; IC50 (Vero [21]): 140 µM; IC50 (HeLa [22]): 140 µM; IC50 (T47D [23]): 70 µM; IC50 (A549 [24]): 80 µM; Activity (T47D [36]): Active; IC50 (TOV112D [25]): 70 µM; inhibition of growth at 50 µg/mL (T47D [26]): 90%; inhibition of growth at 50 µg/mL (A549 [27]): 100%; inhibition of growth at 50 µg/mL (HeLa [28]): 100%; IC50 (A549 [29]): 70 µM; inhibition of growth at 50 µg/mL (HeLa [30]): 90% |
| O=c1c(-c2cccs2)nnc2n1CCN2c1ccc(Cl)cc1 | 80 µM | 100% | > 150 µM | 80 µM | 100 µM | 90% | 90% | 80 µM | 60% | 75% | 100% | 80 µM | 50% | 80 µM | 25% | 80 µM | 100% | 80 µM | 100% | 80% | IC50 (Vero [21]): 130 µM; IC50 (HeLa [22]): 150 µM; IC50 (T47D [23]): 80 µM; IC50 (A549 [24]): 90 µM; IC50 (TOV112D [25]): 80 µM; inhibition of growth at 50 µg/mL (T47D [26]): 90%; inhibition of growth at 50 µg/mL (A549 [27]): 90%; inhibition of growth at 50 µg/mL (HeLa [28]): 100%; IC50 (A549 [29]): 80 µM; inhibition of growth at 50 µg/mL (HeLa [30]): 90% |
